Data taken from patent publication US11840686B2, “Modulation of prekallikrein (PKK) expression” (Ionis Pharmaceuticals, Inc., priority 2013, dated 2023).
Strand notation (5' to 3'): a small letter for the sugar, then the base; units joined by * are phosphorothioate-linked, units joined directly phosphodiester-linked; [ ] holds rarer units or linkages, { } end groups; capitals alone tell only the bases. e = 2'-O-(2-methoxyethyl) (MOE); [5mC] = 5-methylcytosine; d = 2'-deoxy (DNA)

System: human PKK mRNA
Assay: Antisense inhibition of human PKK mRNA in HepaRG cells, 5,000 nM (Example 2)
Assay type: cell-based
How it was run: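 HepaRG cells (20,000/well) electroporated with 5,000 nM MOE gapmer (phosphorothioate backbone, 5-methylcytosines) and harvested after ~24 h. PKK mRNA measured by qRT-PCR with primer probe set RTS3454, normalized to RIBOGREEN total RNA; percent inhibition versus untreated cells.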

[1] = HepaRG cells, electroporation with 5,000 nM antisense oligonucleotide, approximately 24 hours, PKK mRNA by RT-PCR (RTS3454), relative to untreated control cells, Table 5 experiment
[2] = HepaRG cells, electroporation, 5,000 nM antisense oligonucleotide, approx. 24 hours, primer probe set RTS3454, relative to untreated control cells, Table 12
[3] = Table 9 experiment, HepaRG cells, 20,000 cells per well, electroporation with 5,000 nM antisense oligonucleotide, approx. 24 hours, PKK mRNA by RT-PCR (RTS3454), relative to untreated control cells
[4] = Table 10 experiment, HepaRG cells, 20,000 cells per well, electroporation with 5,000 nM antisense oligonucleotide, approx. 24 hours, PKK mRNA by RT-PCR (RTS3454), relative to untreated control cells
[5] = HepaRG cells, electroporation, 5,000 nM antisense oligonucleotide, approx. 24 hours, primer probe set RTS3454, relative to untreated control cells, Table 11
[6] = Table 8, HepaRG cells, electroporation with 5,000 nM antisense oligonucleotide, approx. 24 hours, PKK mRNA by RT-PCR (RTS3454), relative to untreated control cells
[7] = Table 13, human PKK mRNA in HepaRG cells, 5-10-5 gapmers
[8] = human PKK mRNA in HepaRG cells, 5-10-5 gapmers, Table 14
[9] = HepaRG cells, 5,000 nM antisense oligonucleotide, 5-10-5 gapmers, Table 16
[10] = Table 7, HepaRG cells, electroporation with 5,000 nM antisense oligonucleotide, approx. 24 hours, PKK mRNA by RT-PCR (RTS3454), relative to untreated control cells
[11] = HepaRG cells, electroporation with 5,000 nM antisense oligonucleotide, approximately 24 hours, PKK mRNA by RT-PCR (RTS3454), relative to untreated control cells, Table 6 experiment
[12] = human PKK mRNA, HepaRG cells, 5,000 nM antisense oligonucleotide, Table 18
[13] = HepaRG cells, 5,000 nM antisense oligonucleotide, 5-10-5 gapmers, Table 17
[14] = human PKK mRNA, HepaRG cells, 5-10-5 motif oligonucleotides targeting SEQ ID NO: 1 and 10

## 546160 (eA*e[5mC]*eT*eG*eA*dA*dT*dA*dG*d[5mC]*dA*dA*dA*d[5mC]*dA*e[5mC]*e[5mC]*eT*eT*eG; antisense) [compound 546160]
[1]
  % inhibition: 78%

## 547534 (antisense eA*eT*e[5mC]*eT*eG*dA*d[5mC]*dT*dA*dG*dT*dG*dA*dA*dT*eG*eG*e[5mC]*eT*eT) [compound 547534]
[2]
  % inhibition: 72%

## 547477 (antisense eT*e[5mC]*eT*eT*e[5mC]*dA*dT*dT*dT*dG*dT*dT*dA*d[5mC]*d[5mC]*eA*eA*eA*eG*eG) [compound 547477]
[3]
  % inhibition: 74%
[4]
  % inhibition: 68%

## 546382 (antisense e[5mC]*eA*eA*eA*eG*dA*dA*dG*dA*dT*dG*d[5mC]*d[5mC]*dA*d[5mC]*eT*e[5mC]*eT*e[5mC]*e[5mC]) [compound 546382]
[5]
  % inhibition: 58%

## 546295 (antisense e[5mC]*e[5mC]*e[5mC]*eA*e[5mC]*dT*dG*dG*dT*dG*dT*d[5mC]*d[5mC]*dT*dA*eT*eG*eA*eG*eT) [compound 546295]
[6]
  % inhibition: 67%

## 547568 (eG*e[5mC]*eA*e[5mC]*e[5mC]*d[5mC]*dT*dT*dT*dT*d[5mC]*dA*dT*dT*dG*eA*eG*eA*eT*eT; antisense) [compound 547568]
[7]
  % inhibition: 70%

## 547545 (antisense eA*eT*eA*e[5mC]*eT*d[5mC]*dG*d[5mC]*d[5mC]*dT*dT*dT*dG*dT*dG*eA*eT*eG*e[5mC]*eG) [compound 547545]
[2]
  % inhibition: 43%

## 546747 (e[5mC]*eT*e[5mC]*e[5mC]*e[5mC]*dA*d[5mC]*dT*dG*dA*d[5mC]*dT*dG*dA*d[5mC]*eT*eA*e[5mC]*eT*e[5mC]; antisense) [compound 546747]
[7]
  % inhibition: 64%

## 548723 (DNA e[5mC]*eA*e[5mC]*dT*dG*dT*dA*d[5mC]*dT*dA*dG*dT*dT*eT*e[5mC]*e[5mC]*eT; antisense) [compound 548723]
HepaRG cells, 5,000 nM antisense oligonucleotide, human PKK mRNA, Table 18
  % inhibition: 62%

## 547474 (antisense eT*eG*eT*eA*eG*dA*dA*dT*dA*dT*dT*dT*dT*dG*dG*eA*eT*eT*eT*e[5mC]) [compound 547474]
[3]
  % inhibition: 51%
[4]
  % inhibition: 34%

## 547560 (eG*eA*e[5mC]*eG*eG*dT*d[5mC]*dA*d[5mC]*d[5mC]*d[5mC]*dA*dG*d[5mC]*d[5mC]*e[5mC]*eT*eG*eA*e[5mC]; antisense) [compound 547560]
[7]
  % inhibition: 42%

## 546856 (eA*eA*e[5mC]*eT*eA*dT*dA*dA*d[5mC]*dA*dG*dT*dA*dT*d[5mC]*eA*e[5mC]*eT*eG*eT; antisense) [compound 546856]
[8]
  % inhibition: 54%

## 546859 (eT*eT*eT*e[5mC]*e[5mC]*dT*dA*dT*dA*dA*d[5mC]*dT*dA*dT*dA*eA*e[5mC]*eA*eG*eT; antisense) [compound 546859]
[8]
  % inhibition: 7%

## 546838 (e[5mC]*eT*eA*eT*eA*dA*d[5mC]*dT*d[5mC]*dT*dA*dA*d[5mC]*dA*dG*eT*eA*eT*e[5mC]*eA; antisense) [compound 546838]
[7]
  % inhibition: 43%

## 547428 (eT*e[5mC]*eA*eA*eA*dG*dA*dG*dT*dA*dA*d[5mC]*d[5mC]*dA*dG*eA*eG*e[5mC]*eT*e[5mC]; antisense) [compound 547428]
[6]
  % inhibition: 78%

## 546990 (eA*eG*eA*eA*e[5mC]*dA*dG*dG*dA*dG*dA*d[5mC]*dA*dA*dT*e[5mC]*e[5mC]*eA*e[5mC]*eT; antisense) [compound 546990]
[9]
  % inhibition: 49%

## 546250 (e[5mC]*eA*eT*eT*e[5mC]*dA*dA*dT*dT*d[5mC]*dT*dT*d[5mC]*dT*d[5mC]*e[5mC]*eT*e[5mC]*e[5mC]*eA; antisense) [compound 546250]
[10]
  % inhibition: 65%

## 547331 (antisense eA*eG*e[5mC]*eA*e[5mC]*dT*dT*dA*dT*dT*dT*dG*dA*dT*dG*eA*e[5mC]*e[5mC]*eA*e[5mC]) [compound 547331]
[11]
  % inhibition: 47%

## 547329 (antisense eT*eT*eA*eT*eT*dT*dG*dA*dT*dG*dA*d[5mC]*d[5mC]*dA*d[5mC]*eA*eT*eT*eG*e[5mC]) [compound 547329]
[11]
  % inhibition: 24%

## 546432 (eG*eA*e[5mC]*e[5mC]*e[5mC]*d[5mC]*dA*dA*d[5mC]*dA*dG*dA*d[5mC]*dA*dG*e[5mC]*e[5mC]*e[5mC]*eA*e[5mC]; antisense) [compound 546432]
[2]
  % inhibition: 62%

## 547345 (antisense eA*eG*eA*e[5mC]*eA*d[5mC]*dA*dT*dT*dA*dA*dA*dA*dT*dT*eG*eA*e[5mC]*eT*e[5mC]) [compound 547345]
[11]
  % inhibition: 80%

## 547285 (antisense eA*e[5mC]*eT*eG*eT*dA*dG*d[5mC]*dA*dA*dA*d[5mC]*dA*dA*dG*eG*eA*eA*eA*eT) [compound 547285]
[1]
  % inhibition: 51%

## 547467 (antisense eT*eG*eG*eT*eA*dT*dA*dA*dA*dT*dT*dG*dT*dG*d[5mC]*eT*eT*eG*eT*eG) [compound 547467]
[3]
  % inhibition: 80%
[4]
  % inhibition: 65%

## 547611 (antisense e[5mC]*eT*eG*eT*eA*dA*d[5mC]*dA*dG*dT*dA*dT*d[5mC]*dA*d[5mC]*eT*eG*eT*eA*e[5mC]) [compound 547611]
[8]
  % inhibition: 71%

## 547492 (antisense e[5mC]*eA*eG*eT*e[5mC]*d[5mC]*dA*dT*dG*dT*dA*d[5mC]*dT*d[5mC]*dA*eG*e[5mC]*eG*eA*e[5mC]) [compound 547492]
[5]
  % inhibition: 62%

## 548771 (antisense eA*eT*eA*eA*d[5mC]*dA*dG*dT*dA*dT*d[5mC]*dA*d[5mC]*eT*eG*eT*e[5mC]) [compound 548771]
[12]
  % inhibition: 62%

## 546276 (eT*eG*eG*eA*eG*dA*dA*d[5mC]*d[5mC]*dA*dT*d[5mC]*d[5mC]*dA*dT*eA*eG*eA*eT*eA; antisense) [compound 546276]
[6]
  % inhibition: 74%

## 546357 (antisense eG*e[5mC]*eT*eT*eT*dT*d[5mC]*d[5mC]*dA*dT*d[5mC]*dA*d[5mC]*dT*dG*e[5mC]*eT*e[5mC]*eT*eG) [compound 546357]
[5]
  % inhibition: 79%

## 546306 (antisense eT*eT*eT*eG*eG*dT*dG*dA*dA*dT*dA*dA*dT*dA*dA*eT*e[5mC]*eT*e[5mC]*eT) [compound 546306]
[3]
  % inhibition: 65%
[4]
  % inhibition: 71%

## 546459 (eG*eT*eA*eG*e[5mC]*d[5mC]*dA*dT*dA*d[5mC]*dA*dT*d[5mC]*dT*dG*eA*eG*eG*eA*eA; antisense) [compound 546459]
[2]
  % inhibition: 46%

## 547365 (eT*eG*eA*eG*eA*dA*d[5mC]*d[5mC]*d[5mC]*dT*dG*dG*d[5mC]*dA*dA*e[5mC]*eA*eT*e[5mC]*e[5mC]; antisense) [compound 547365]
[10]
  % inhibition: 81%

## 548730 (DNA eT*eG*eT*eA*d[5mC]*dT*dA*dG*dT*dT*dT*d[5mC]*d[5mC]*dT*eA*eT*eA; antisense) [compound 548730]
[12]
  % inhibition: 0%

## 546913 (eG*eT*eA*e[5mC]*e[5mC]*dT*dA*dT*dA*dT*d[5mC]*dA*d[5mC]*dT*dG*eT*eA*eA*e[5mC]*eT; antisense) [compound 546913]
[9]
  % inhibition: 38%

## 547782 (antisense e[5mC]*e[5mC]*eA*eA*eG*dT*dA*dT*d[5mC]*dT*d[5mC]*dA*dT*dG*dT*eG*e[5mC]*e[5mC]*eT*eG) [compound 547782]
[13]
  % inhibition: 67%

## 547650 (eG*eT*eA*e[5mC]*e[5mC]*dT*dA*dT*dA*dA*d[5mC]*dA*dG*dT*dA*eT*e[5mC]*eA*e[5mC]*eT; antisense) [compound 547650]
[14]
  % inhibition: 32%

## 547612 (antisense e[5mC]*e[5mC]*eT*eG*eT*dA*dA*d[5mC]*dA*dG*dT*dA*dT*d[5mC]*dA*e[5mC]*eT*eG*eT*eA) [compound 547612]
[8]
  % inhibition: 68%

## 547743 (eG*eG*eT*eG*eG*dT*dG*dG*dG*dA*dT*dT*dG*dG*dT*eG*eG*e[5mC]*eG*eG; antisense) [compound 547743]
[13]
  % inhibition: 61%

## 547729 (eG*eT*eG*eA*eG*dA*dT*dT*dG*dG*dT*dG*dG*dT*dG*eG*eG*eT*eG*eG; antisense) [compound 547729]
[13]
  % inhibition: 45%

## 546149 (e[5mC]*e[5mC]*e[5mC]*e[5mC]*eA*d[5mC]*d[5mC]*dT*d[5mC]*dT*dG*dA*dA*dG*dA*eA*eG*eG*e[5mC]*eG; antisense) [compound 546149]
[1]
  % inhibition: 83%

## 546904 (eT*e[5mC]*e[5mC]*eT*eA*dT*dA*dT*d[5mC]*dA*d[5mC]*dT*dG*dT*dA*e[5mC]*e[5mC]*eT*eA*eT; antisense) [compound 546904]
[14]
  % inhibition: 80%

## 546324 (antisense eG*eG*eT*eA*eT*dA*dA*dA*dT*dT*dG*dT*dG*d[5mC]*dT*eT*eG*eT*eG*eT) [compound 546324]
[3]
  % inhibition: 73%
[4]
  % inhibition: 82%
